# Measured values reported in PMC11464693 (Nature Communications, 2024).
# Key:
# laccase (Lac) = molecular target: T1, laccase (Lac) (Bacillus subtilis, UniProt P07788); assay: ABTS oxidation at […] nm, whole cells; format: cell-based; details: 5 mM ABTS, 37 °C, pH optimum 5.0; surface-displayed enzyme
# T1 sequence (P07788 1-513): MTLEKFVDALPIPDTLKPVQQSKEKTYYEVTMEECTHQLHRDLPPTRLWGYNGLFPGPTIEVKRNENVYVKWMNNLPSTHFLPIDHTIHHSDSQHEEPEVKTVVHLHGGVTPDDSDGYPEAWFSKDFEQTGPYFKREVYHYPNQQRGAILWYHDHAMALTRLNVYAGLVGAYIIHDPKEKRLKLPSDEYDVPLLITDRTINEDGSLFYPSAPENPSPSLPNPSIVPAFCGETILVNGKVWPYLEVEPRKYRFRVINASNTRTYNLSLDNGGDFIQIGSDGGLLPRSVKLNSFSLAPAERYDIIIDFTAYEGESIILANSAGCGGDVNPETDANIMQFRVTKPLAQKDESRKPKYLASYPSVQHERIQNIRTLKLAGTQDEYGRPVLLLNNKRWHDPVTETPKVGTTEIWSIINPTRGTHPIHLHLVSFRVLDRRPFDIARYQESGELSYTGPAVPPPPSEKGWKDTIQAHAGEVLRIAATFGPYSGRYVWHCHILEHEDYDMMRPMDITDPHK
# XylD = molecular target: T2, XylD (Caulobacter vibrioides, UniProt A0A0H3C6H6); assay: semicarbazone assay at […] nm; format: biochemical; details: 37 °C
# T2 sequence (A0A0H3C6H6 1-591): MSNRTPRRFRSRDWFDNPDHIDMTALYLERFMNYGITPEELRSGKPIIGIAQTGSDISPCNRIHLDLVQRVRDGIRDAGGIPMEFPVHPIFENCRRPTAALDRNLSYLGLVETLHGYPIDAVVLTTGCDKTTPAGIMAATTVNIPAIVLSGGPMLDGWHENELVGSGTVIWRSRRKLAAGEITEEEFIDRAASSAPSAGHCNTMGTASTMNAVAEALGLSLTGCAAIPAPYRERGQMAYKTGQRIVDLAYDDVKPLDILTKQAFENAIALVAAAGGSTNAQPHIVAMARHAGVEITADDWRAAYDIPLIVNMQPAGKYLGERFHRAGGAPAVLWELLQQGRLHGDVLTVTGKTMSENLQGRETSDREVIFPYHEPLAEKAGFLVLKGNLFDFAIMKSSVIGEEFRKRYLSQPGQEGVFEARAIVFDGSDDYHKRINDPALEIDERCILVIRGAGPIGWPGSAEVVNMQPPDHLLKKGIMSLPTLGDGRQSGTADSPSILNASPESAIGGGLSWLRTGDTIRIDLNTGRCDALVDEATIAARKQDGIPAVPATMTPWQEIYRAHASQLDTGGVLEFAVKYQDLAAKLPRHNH
# XDH = molecular target: T3, XDH (Caulobacter vibrioides, UniProt B8H1Z0); assay: NADH formation at […] nm; format: biochemical; details: 10 mM D-xylose, 1 mM NAD+, 37 °C
# T3 sequence (B8H1Z0 1-248): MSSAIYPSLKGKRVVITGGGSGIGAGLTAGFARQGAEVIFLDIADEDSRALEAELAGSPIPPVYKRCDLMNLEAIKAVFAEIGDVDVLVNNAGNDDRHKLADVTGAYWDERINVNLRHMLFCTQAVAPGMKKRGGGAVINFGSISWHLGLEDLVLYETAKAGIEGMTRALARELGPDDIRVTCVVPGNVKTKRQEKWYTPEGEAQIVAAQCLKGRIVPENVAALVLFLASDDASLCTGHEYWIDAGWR
# KGSADH = molecular target: T4, KGSADH (Caulobacter vibrioides, UniProt A0A0H3C801); assay: NADH formation at […] nm; format: biochemical
# T4 sequence (A0A0H3C801 1-478): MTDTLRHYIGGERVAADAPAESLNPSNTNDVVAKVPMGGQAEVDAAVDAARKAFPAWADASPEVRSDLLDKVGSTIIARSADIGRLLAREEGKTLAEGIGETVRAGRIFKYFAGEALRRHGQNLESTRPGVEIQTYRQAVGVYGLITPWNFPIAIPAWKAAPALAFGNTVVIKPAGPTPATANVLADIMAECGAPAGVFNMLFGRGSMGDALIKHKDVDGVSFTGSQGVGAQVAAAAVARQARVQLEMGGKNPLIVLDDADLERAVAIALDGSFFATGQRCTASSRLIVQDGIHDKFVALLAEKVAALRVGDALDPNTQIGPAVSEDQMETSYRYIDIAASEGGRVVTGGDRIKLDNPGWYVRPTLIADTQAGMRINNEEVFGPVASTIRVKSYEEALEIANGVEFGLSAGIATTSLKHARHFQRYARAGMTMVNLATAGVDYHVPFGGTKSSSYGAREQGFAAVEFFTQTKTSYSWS
# XylC = XylC (Caulobacter vibrioides, UniProt A0A0H3C6P8); assay: decrease of p-nitrophenol absorbance at […] nm; format: biochemical; details: spontaneous hydrolysis controlled
# Sequence of XylC (A0A0H3C6P8 1-289): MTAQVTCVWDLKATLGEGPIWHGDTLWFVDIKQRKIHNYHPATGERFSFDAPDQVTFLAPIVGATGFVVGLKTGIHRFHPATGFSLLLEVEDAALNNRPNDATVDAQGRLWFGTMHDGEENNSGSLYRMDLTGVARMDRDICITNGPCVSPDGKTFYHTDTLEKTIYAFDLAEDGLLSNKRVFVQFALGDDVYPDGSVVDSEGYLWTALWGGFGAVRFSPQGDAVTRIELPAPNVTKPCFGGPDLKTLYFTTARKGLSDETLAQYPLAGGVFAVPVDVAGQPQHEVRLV
smiles,measurement,setting,value
"CCn1c(=NN=c2sc3cc(S(=O)(=O)O)ccc3n2CC)sc2cc(S(=O)(=O)O)ccc21 [ABTS, 2,2’-azino-bis (3-ethylbenzothiazoline-6-sulfonic acid)]","ABTS oxidation at 420 nm, whole cells",laccase (Lac),The oxidation activity of E. coli-Lac towards ABTS was calibrated by measuring the absorbance
O=C(O)[C@H](O)[C@@H](O)[C@H](O)CO [D-xylonic acid],semicarbazone assay at 250 nm,XylD,D-xylonic acid would be transformed into 2-keto-3-deoxyxylic acid by XylD
OC1OC[C@@H](O)[C@H](O)[C@H]1O (stereo partly drawn) [D-xylose],NADH formation at 340 nm,XDH,D-xylose is oxidized into D-xylono-lactone and generates NADH catalyzed by XDH
NC(=O)c1ccc[n+]([C@@H]2O[C@H](COP(=O)(O)OP(=O)(O)OC[C@H]3O[C@@H](n4cnc5c(N)ncnc54)[C@H](O)[C@@H]3O)[C@@H](O)[C@H]2O)c1 [NAD^+],NADH formation at 340 nm,XDH,catalyzed by XDH using NAD^+ as coenzyme
same,NADH formation at 340 nm,KGSADH; glutaraldehyde as substrate,activity of KGSADH by following the rate of NAD^+ reduction
O=CCCCC=O [glutaraldehyde],NADH formation at 340 nm,"KGSADH; NAD+, substitute substrate",monitored by measuring the generation of NADH using analogous glutaraldehyde as substrate
"O=C1O[C@H](CO)[C@H](O)[C@H]1O [xylono-1,4-lactone]",decrease of p-nitrophenol absorbance at 405 nm,XylC,"To examine the activity of XylC, D-xylono-lactone was used as substrate to produce D-xylonic acid"
